Reference: patent US20230405078A1, “DETECTION AND TREATMENT OF INTESTINAL FIBROSIS” (THE REGENTS OF THE UNIVERSITY OF CALIFORNIA, priority 2020, published 2023)
Where no end group is shown, it is not given here.

Test system: ERK1/2 phosphorylation
Experiment: Phospho-ERK1/2 ELISA in CCD-18Co fibroblasts
Format: cell-based, human
Experimental: FIG. 27. Elafin inhibited ERK1/2 phosphorylation in intestinal fibroblasts via PAR2. (A) Serum starved CCD-18Co and primary stricturing CD patient-derived colonic fibroblasts were transiently transfected with either control siRNA or ZEB1 siRNA overnight, followed by treatment with 10 ng/ml TGF-β1 or 100 μg/ml stricturing CD patient-derived serum exosomes (CDSE) for 24 hours. (B) CCD-18Co fibroblasts were treated with DMSO, PAR1 inhibitor (SCH79797), or PAR2 inhibitor (GB88) for 2 hours. GB88 inhibited ERK1/2 phosphorylation. (C) CCD-18Co fibroblasts were pretreated with DMSO, PAR1 agonist, or PAR2 agonists for 30 minutes, followed by TGF-β1 10 ng/ml. Two hours later, elafin (1 μg/ml) and incubated for 2 hours. Elafin inhibited ERK1/2 phosphorylation, which was reversed by PAR2 agonist. […] Phospho-ERK1/2, ProCOL1A1, COL1A2, and ZEB1 protein were determined by ELISA. miR205-5p expression was determined by real-time RT-PCR. […]
FIG. 28. […] (D) Quantification of cathepsin S signals (B7-8) and control signals (A1-2 and E1-2) on the protease array using Bio-Rad Image Lab Software. […] Phospho-ERK1/2 was determined by ELISA. […] ProCOL1A1 and COL1A2 were determined by ELISA. […]

Row | Substance | effect on elafin-mediated inhibition of ERK1/2 phosphorylation (elafin 1 μg/ml, 2 hours) | ERK1/2 phosphorylation (CCD-18Co fibroblasts)
1 | SLIGKV-NH2 [PAR2 agonist, reference compound] | reversed | 
2 | Elafin: small (6 kDa) human elastase-specific protease inhibitor and antimicrobial peptide; active form SEQ ID NO: 2 (AQEPVKGPVSTKPGSCPIILIRCAMLNPPNRCLKDTDCPGIKKCCEGSCGMACFVPQ; listed as Homo sapiens) |  | inhibited
